# Assay results as given in patent US20170107179A1 (Tetraphase Pharmaceuticals, Inc., priority 2010, published 2017).
# Where two headings read alike, the source gives them in different places.
# Columns and labels:
# [1] = system: Gram-negative and Gram-positive organisms (clinical isolates); experiment: Broth microdilution MIC against clinical isolates (CLSI M7-A8), Table 9; type: cell-based
# S. aureus Smith = experiment: Mouse systemic infection (septicemia) model, CD-1 mice; conditions: Staphylococcus aureus, in Mus musculus, 48 h; for responders at 3 mg/kg: iv, read-out: Percent survival at 48 hours, IV (3 mg/kg); for responders at 30 mg/kg: po, read-out: Percent survival at 48 hours, PO (30 mg/kg)
# [2] = Klebsiella aerogenes, Enterobacter aerogenes, n=30
# [3] = Klebsiella pneumoniae, Klebsiella pneumonia, n=27
# [4] = Stenotrophomonas maltophilia, n=29
# [5] = Streptococcus intermedius, n=30
smiles,measurement,setting,value
CC(C)(O/N=C(\C(=O)N[C@@H]1C(=O)N2C(C(=O)[O-])=C(C[n+]3ccccc3)CS[C@H]12)c1csc(N)n1)C(=O)O [Ceftazidime],MIC50,"[1]; Acinetobacter lwoffii, n=29",1 µg/mL
same,MIC90,"[1]; Acinetobacter lwoffii, n=29",16 µg/mL
same,MIC50,"[1]; Enterobacter cloacae, n=29",> 64 µg/mL
same,MIC90,"[1]; Enterobacter cloacae, n=29",> 64 µg/mL
same,MIC50,"[1]; Escherichia coli, n=40",64 µg/mL
same,MIC90,"[1]; Escherichia coli, n=40",> 64 µg/mL
same,MIC50,"[1]; Kiebsielia oxytoca, n=30",≤ 0.5 µg/mL
same,MIC90,"[1]; Kiebsielia oxytoca, n=30",≤ 0.5 µg/mL
same,MIC50,[1]; [2],≤ 0.5 µg/mL
same,MIC90,[1]; [2],16 µg/mL
same,MIC50,[1]; [3],> 64 µg/mL
same,MIC90,[1]; [3],> 64 µg/mL
same,MIC50,"[1]; Morganella morganii, n=30",≤ 0.5 µg/mL
same,MIC90,"[1]; Morganella morganii, n=30",4 µg/mL
same,MIC50,"[1]; Proteus vulgaris, n=29",≤ 0.5 µg/mL
same,MIC90,"[1]; Proteus vulgaris, n=29",> 64 µg/mL
same,MIC50,"[1]; Salmonella species, n=30, read-out: MIC50",≤ 0.5 µg/mL
same,MIC50,"[1]; Serratia marcescens, n=30",≤ 0.5 µg/mL
same,MIC90,"[1]; Serratia marcescens, n=30",≤ 0.5 µg/mL
same,MIC50,[1]; [4],8 µg/mL
same,MIC90,[1]; [4],> 64 µg/mL
CCC[C@@H]1C[C@@H](C(=O)N[C@@H]([C@H]2O[C@H](SC)[C@H](O)[C@@H](O)[C@H]2O)[C@H](C)Cl)N(C)C1 [Clindamycin],MIC50,[1],0.03 µg/mL
same,MIC90,[1],0.06 µg/mL
same,MIC50,"[1]; Staphylococcus aureus, Staphylococcus aureus (MRSA PVL+), n=30, read-out: MIC50",0.06 µg/mL
same,MIC90,"[1]; Staphylococcus aureus, Staphylococcus aureus (MRSA PVL+), n=30, read-out: MIC90",0.12 µg/mL
same,MIC50,"[1]; Streptococcus anginosus, n=20",≤ 0.015 µg/mL
same,MIC90,"[1]; Streptococcus anginosus, n=20",0.03 µg/mL
same,MIC50,[1]; [5],≤ 0.015 µg/mL
same,MIC90,[1]; [5],0.06 µg/mL
same,MIC50,"[1]; Streptococcus mitis, n=29",0.03 µg/mL
same,MIC90,"[1]; Streptococcus mitis, n=29",0.06 µg/mL
CCC(C)(C)N1Cc2c(O)c3c(c(N(C)C)c2C1)C[C@H]1C[C@H]2[C@H](N(C)C)C(O)=C(C(N)=O)C(=O)[C@@]2(O)C(O)=C1C3=O [Compound 103],responders at 3 mg/kg,S. aureus Smith,83%
same,responders at 30 mg/kg,S. aureus Smith,100%
CC(C)[C@@H](C)N1Cc2c(O)c3c(c(F)c2C1)C[C@H]1C[C@H]2[C@H](N(C)C)C(O)=C(C(N)=O)C(=O)[C@@]2(O)C(O)=C1C3=O [Compound 106],responders at 3 mg/kg,S. aureus Smith,17%
same,responders at 30 mg/kg,S. aureus Smith,20%
CC[C@H](C)N1Cc2c(O)c3c(c(Cl)c2C1)C[C@H]1C[C@H]2[C@H](N(C)C)C(O)=C(C(N)=O)C(=O)[C@@]2(O)C(O)=C1C3=O [Compound 110],responders at 3 mg/kg,S. aureus Smith,33%
same,responders at 30 mg/kg,S. aureus Smith,50%
CN(C)[C@@H]1C(O)=C(C(N)=O)C(=O)[C@@]2(O)C(O)=C3C(=O)c4c(O)c5c(c(C(F)(F)F)c4C[C@H]3C[C@@H]12)CN(C(C)(C)C)C5 [Compound 112],responders at 3 mg/kg,S. aureus Smith,100%
same,responders at 30 mg/kg,S. aureus Smith,20%
CN(C)c1c2c(c(O)c3c1C[C@H]1C[C@H]4[C@H](N(C)C)C(O)=C(C(N)=O)C(=O)[C@@]4(O)C(O)=C1C3=O)CN(C(C)(C)C)C2 [Compound 115],responders at 3 mg/kg,S. aureus Smith,100%
same,responders at 30 mg/kg,S. aureus Smith,100%
CN(C)[C@@H]1C(O)=C(C(N)=O)C(=O)[C@@]2(O)C(O)=C3C(=O)c4c(O)c5c(c(F)c4C[C@H]3C[C@@H]12)CN(C(C)(C)C1CC1)C5 [Compound 118],responders at 3 mg/kg,S. aureus Smith,17%
same,responders at 30 mg/kg,S. aureus Smith,50%
CCC(C)(C)N1Cc2c(O)c3c(c(OC)c2C1)C[C@H]1C[C@H]2[C@H](N(C)C)C(O)=C(C(N)=O)C(=O)[C@@]2(O)C(O)=C1C3=O [Compound 119],responders at 3 mg/kg,S. aureus Smith,83%
same,responders at 30 mg/kg,S. aureus Smith,75%
CC[C@H](C)N1Cc2c(O)c3c(c(F)c2C1)C[C@H]1C[C@H]2[C@H](N(C)C)C(O)=C(C(N)=O)C(=O)[C@@]2(O)C(O)=C1C3=O [Compound 123],responders at 3 mg/kg,S. aureus Smith,33%
same,responders at 30 mg/kg,S. aureus Smith,67%
COc1c2c(c(O)c3c1C[C@H]1C[C@H]4[C@H](N(C)C)C(O)=C(C(N)=O)C(=O)[C@@]4(O)C(O)=C1C3=O)CN(C(C)(C)C)C2 [Compound 125],responders at 3 mg/kg,S. aureus Smith,100%
same,responders at 30 mg/kg,S. aureus Smith,33%
